Assay results from patent US20160101146A1, “TREATMENT FOR INFECTION WITH HEPATITIS B VIRUS ALONE OR IN COMBINATION WITH HEPATITIS DELTA VIRUS AND ASSOCIATED LIVER DISEASES” (NOVARTIS AG, priority 2011, published 2016).

Tests used:
[1] = tested on: Hepatitis B virus replication; test: Secreted HBV DNA quantitation in cell culture supernatants by real-time PCR; format: cell-based, Hepatitis B virus (human hepatoma cell lines)
Protocol: (§1) HepG2215 cell line, derived from HepG2 cells, was stably transfected with HBV DNA and supported full HBV replication with production of infectious virions and HBsAg. HepG2215 cells were cultured in 12-well plates, as described previously (7, 8), for 7 days prior to adding the cyclophilin inhibitors.
(§2) The cells were treated with 0.25, 1.0 or 5.0 micrograms/mL of NIM811 or DEB025; cells and supernatants were harvested separately at baseline, 6, 24, 48 and 72 hours after the addition of NIM811 or DEB025, respectively.
(§3) HuH-7 cells were transfected with a plasmid containing a pBlueScript KS(+) vector with a 1.5 HBV DNA genomes of subtype adw2 was used. Subconfluent HuH-7 cells were transfected with 5 μg of plasmid DNA per 60-mm-diameter dish using 10 μl of Superfect reagent (Qiagen, Crawley, UK). The supernatants were replaced 18 h posttransfection with medium supplemented with 10% FCS, and the cells were cultured for 3 days, as described (7).
(§4) Stably transfected (HepG2215) and transiently transfected (HUH-7) cells, producing full HBV virions and HBsAg particles, were treated with a range of Alisporivir concentrations (0.25, 1.0 5.0 or 20 micrograms/ml) alone, telbivudine alone, or combinations of Alisporivir and telbivudine. To determine the involvement of individual cyclophilins, HepG2215 cells were transfected with siRNA-specific for cyclophilin (Cyp) A, C or D and additionally treated with Alisporivir. Cytoplasmic extracts and supernatants were harvested at baseline; 24, 48 and 72 hours post-treatment. The kinetics of antiviral activity was assessed by quantitation of intracellular and secreted HBV-DNA (real-time qPCR) and HBsAg levels (ELISA).
(§5) HBV replication was assessed by quantitation of both viral nucleocapsid-associated HBV DNA (cytoplasmic) and the HBV DNA levels in cell culture supernatants, as described previously (8,9). Nucleocapsid HBV DNA was extracted and quantitated by TaqMan real-time PCR (ABI Prism 7700). Intracellular HBV DNA was normalized with b-actin as a house-keeping gene. Secreted HBV DNA was extracted with QIAmp DNA minikit (Qiagen, Sussex, UK) and also quantitated by TaqMan. The sensitivity of HBV DNA quantitation was verified in each run with serial dilutions of HBV DNA plasmid, as well as the EuroHep HBV DNA standard, as described (9,10).

[2] = tested on: Hepatitis B virus replication; test: Alisporivir treatment of HepG2215 cells silenced for CypA, C or D by siRNA; HBV-DNA and HBsAg levels; format: cell-based, Hepatitis B virus (human hepatoma cell line); settings: greater effects in CypC or CypD silenced cells than CypA silenced cells (p<0.001)
Protocol: To assess the role of cyclophilin A in HBV replication, HepG2215 cells were transfected with siRNA for cyclophilin A and incubated with medium only or with the addition of NIM811 or DEB025. Similarly, the role of Cyclophilin B, C and D in HBV and HDV replication will be evaluated by siRNA specific for CypB, C and D.
as §4, with “Cytoplasmic extracts and supernatants were harvested at baseline; 24, 48 and 72 hours post-treatment.” left out
HepG2215 cells were seeded with the siRNAs (Dharmacon Inc., Lafayette, Colo.) at 50% density and incubated for 48 h. […] Total DNA was extracted from the samples and HBV DNA was quantitated by real time PCR, as above. […] The RNA was reverse transcribed with Quantitect Reverse transcription kit (Qiagen) and cDNA quantitated with SYBR Green Quantitect kit using Quantitect primers (Qiagen, Sussex, UK).

[3] = tested on: Hepatitis B virus replication; test: Intracellular (cytoplasmic, nucleocapsid-associated) HBV DNA quantitation by real-time PCR in HBV-transfected hepatoma cells; format: cell-based, Hepatitis B virus (human hepatoma cell lines); settings: for reduction of cellular HBV DNA: FIG. 6
Protocol: as §1, §2, §3, §4, §5

Hepatitis B virus = settings: at one year, cited from earlier work; for rate of undetectable HBV DNA: HBeAg-negative patients with CHB; for virological treatment response rate (undetectable serum HBV DNA): HBeAg-positive patients

## C/C=C/C[C@@H](C)[C@@H](O)[C@H]1C(=O)N[C@@H](CC)C(=O)N(C)[C@H](C)C(=O)N(CC)[C@@H](C(C)C)C(=O)N[C@@H](C(C)C)C(=O)N(C)[C@@H](CC(C)C)C(=O)N[C@@H](C)C(=O)N[C@H](C)C(=O)N(C)[C@@H](CC(C)C)C(=O)N(C)[C@@H](CC(C)C)C(=O)N(C)[C@@H](C(C)C)C(=O)N1C [Alisporivir]
[1]; HepG2215 and HUH-7 cells, dose-dependent (0.25-20 micrograms/ml), compared with untreated controls, p<0.001
  reduction of secreted HBV-DNA: 63%
[1]; HepG2215 cells, 5.0 micrograms/mL, FIG. 2
  effect in reducing HBV DNA levels in cell culture supernatants compared with NIM811: greater effect
[1]; HepG2215 cells, FIG. 5
  reduction of secreted HBV DNA: reductions
[1]; transiently transfected Huh7 or stably transfected HepG2215 cells, FIG. 3
  reduction of secreted HBV DNA: dose-dependent reduction
[2]
  HBV-DNA levels in Cyp-silenced cells: further reduced
  HBsAg levels in Cyp-silenced cells: further reduced
[3]; HepG2215 and HUH-7 cells, dose-dependent (0.25-20 micrograms/ml), compared with untreated controls, p=0.004
  reduction of intracellular HBV-DNA: 70%
[3]; HepG2215 cells, 5 micrograms/mL, 72 h
  reduction of intracellular HBV DNA compared with NIM811: greater than the reduction observed with NIM811
[3]; HepG2215 cells, 5 micrograms/mL, 72 hours, FIG. 1
  reduction of intracellular HBV DNA levels: 10 fold
[3]; HepG2215 cells
  reduction of cellular HBV DNA: reductions
[3]; Huh7 and HepG2215 cells, FIG. 4
  reduction of cytoplasmic HBV DNA: dose dependent reductions

## C=C1[C@H](CO)[C@@H](O)C[C@@H]1n1cnc2c(=O)[nH]c(N)nc21 [entecavir]
Hepatitis B virus
  rate of undetectable HBV DNA: 90%
  virological treatment response rate (undetectable serum HBV DNA): 67%

## Cc1cn([C@@H]2C[C@@H](O)[C@H](CO)O2)c(=O)[nH]c1=O [telbivudine, reference compound]
[1]; HepG2215 cells, FIG. 5
  reduction of secreted HBV DNA: reductions
Hepatitis B virus
  rate of undetectable HBV DNA: 88%
  virological treatment response rate (undetectable serum HBV DNA): 60%
[3]; HepG2215 cells
  reduction of cellular HBV DNA: reductions

## C[C@H](Cn1cnc2c(N)ncnc21)OCP(=O)(O)O [tenofovir]
Hepatitis B virus
  rate of undetectable HBV DNA: 91%
  virological treatment response rate (undetectable serum HBV DNA): 74%
